Data: US4556660A, “N-(Bicyclic heterocyclyl)-4-piperidinamines” (Janssen Pharmaceutica N.V., priority 1983, dated 1985)
Read-outs that look alike come from different tables or passages of the source.

Experiments:
[1] = test system: compound 48/80-induced lethality; test: Protection of rats from compound 48/80-induced lethality; format: in vivo, Male rats of an inbred Wistar strain; conditions: Rattus norvegicus, 4 h, read-out: compound 48/80 lethality test rats-ED50
Procedure: Protection of rats from compound 48/80-induced lethality
The protection from compound 48/80-induced lethal circulatory collapse appears to be a simple way of evaluating quantitatively the antihistaminic activity of test compounds. Male rats of an inbred Wistar strain, weighing 240-260 g were used in the experiment. After overnight starvation the rats were transferred to conditioned laboratories (temp.=21±1° C., relative humidity-65±5%).
The rats were treated subcutaneously or orally with a test compound or with the solvent (NaCl solution, 0.9%). […] Survival after 4 hours is therefore considered to be a safe criterion of a protective effect of drug administration.
The ED50 -values of the compounds of formula (I) and the intermediates of formula (XVIII) are listed in the first column of table 1 and table 2. Said ED50 -values are the values in mg/kg body weight at which the tested compounds protect 50% of the tested animals against compound 48/80-induced lethality.

[2] = test system: serotonin; compound 48/80-induced gastric lesions; test: Antagonistic activity on the effects of serotonin in the gastric lesion test (lesions induced by compound 48/80); format: in vivo, Male rats of a Wistar inbred strain
Procedure: Antagonistic activity on the effects of serotonin in the gastric lesion test
Male rats of a Wistar inbred strain, weighing 220-250 g, were starved overnight, water being available ad libitum. The test compounds were administered orally as a solution or as a suspension in aqueous medium. A control rat and a "blank" rat received the test compound. One hour later 5-[4-(diphenylmethyl)-1-piperazinylmethyl]-1-methyl-1H-benzimidazole-2-methanol was administered subcutaneously to all rats at the dose of 2.5 mg/kg.
Four hours after the intravenous injection of compound 48/80, the rats were decapitated and the stomachs were removed. Subsequently the stomachs were inspected for distension and contents (blood, fluid, food) and thoroughly rinsed. The macroscopic lesions were scored from 0 to +++, 0 corresponding to complete absence of visible lesions and the highest score corresponding to reddish rough patches covering more than half the glandular area.

[3] = Rattus norvegicus, po; read-out: gastric lesion test ED50

Compound	ED50 [1] [mg/kg]	ED50 [2, 3] [mg/kg]	ED50 ([2]; Rattus norvegicus, po, read-out: gastric lesion test ED50) [mg/kg]
O=C(O)/C=C/C(=O)O.O=C(O)/C=C/C(=O)O.c1cnc(OCCN2CCC(Nc3nc4ccccc4n3Cc3ccco3)CC2)nc1 [Compound 83, 1-(2-furanylmethyl)-N-[1-[2-(2-pyrimidinyloxy)ethyl]-4-piperidinyl]-1H-benzimidazol-2-amine (E)-2-butenedioate (1:2)]	0.08	1.25	–
Nc1c(Cl)ncnc1NCCN1CCC(Nc2nc3ccccc3n2Cc2ccc(F)cc2)CC1 [Compound 31, 6-chloro-N^4-[2-[4-[[1-[(4-fluorophenyl)methyl]-1H-benzimidazol-2-yl]amino]-1-piperidinyl]ethyl]-4,5-pyrimidinediamine]	0.16	1.25	–
Nc1cncnc1NCCN1CCC(Nc2nc3ccccc3n2Cc2ccc(F)cc2)CC1 [Compound 96, N^4-[2-[4-[[1-[(4-fluorophenyl)methyl]-1H-benzimidazol-2-yl]amino]-1-piperidinyl]ethyl]-4,5-pyrimidinediamine]	0.08	0.02	–
Fc1ccc(Cn2c(NC3CCN(CCNc4ncccn4)CC3)nc3ccccc32)cc1 [Compound 1, 1-[(4-fluorophenyl)methyl]-N-[1-[2-[(2-pyrimidinyl)amino]ethyl]-4-piperidinyl]-1H-benzimidazol-2-amine]	0.16	0.63	–
c1cnc(NCCN2CCC(Nc3nc4cccnc4n3Cc3ccco3)CC2)nc1 [Compound 28, 3-(2-furanylmethyl)-N-[1-[2-(2-pyrimidinylamino)ethyl]-4-piperidinyl]-3H-imidazo[4,5-b]pyridin-2-amine]	0.04	0.63	–
O=C(O)/C=C/C(=O)O.O=C(O)/C=C/C(=O)O.O=C(OCCN1CCC(Nc2nc3ccccc3n2Cc2ccc(F)cc2)CC1)c1ccc2ccccc2n1 [Compound 112, [2-[4-[[1-[(4-fluorophenyl)methyl]-1H-benzimidazol-2-yl]amino]-1-piperidinyl]ethyl]-2-quinolinecarboxylate (E)-2-butenedioate (1:2)]	0.04	0.63	–
O=C(NCCN1CCC(Nc2nc3ccccc3n2Cc2ccc(F)cc2)CC1)c1ccc(Cl)nc1.O=C(O)/C=C/C(=O)O.O=C(O)/C=C/C(=O)O [Compound 116, 6-chloro-N-[2-[4-[[1-[(4-fluorophenyl)methyl]-1H-benzimidazol-2-yl]amino]-1-piperidinyl]ethyl]-3-pyridinecarboxamide (E)-2-butenedioate (1:2)]	0.31	2.5	–
Oc1ccc(Cn2c(NC3CCN(CCNc4ncccn4)CC3)nc3ccccc32)cc1 [Compound 73, 4-[[2-[[1-[2-(2-pyrimidinylamino)ethyl]-4-piperidinyl]amino]-1H-benzimidazol-1-yl]methyl]phenol]	2.5	2.5	–
Fc1ccc(Cn2c(NC3CCN(CCOc4ncccn4)CC3)nc3ccccc32)cc1 [Compound 81, 1-[(4-fluorophenyl)methyl]-N-[1-[2-(2-pyrimidinyloxy)ethyl]-4-piperidinyl]-1H-benzimidazol-2-amine]	0.16	0.63	–
c1ccc(Cn2c(NC3CCN(CCNc4ncccn4)CC3)nc3ccccc32)cc1 [Compound 65, 1-(phenylmethyl)-N-[1-[2-[(2-pyrimidinyl)amino]ethyl]-4-piperidinyl]-1H-benzimidazol-2-amine]	0.08	0.31	–
NC(=O)c1cccnc1NCCN1CCC(Nc2nc3cccnc3n2Cc2ccc(F)cc2)CC1 [Compound 24, 2-[[2-[4-[[3-[(4-fluorophenyl)methyl]-3H-imidazo[4,5-b]pyridin-2-yl]amino]-1-piperidinyl]ethyl]amino]-3-pyridinecarboxamide]	0.04	–	0.04
O=c1ccnc(NCCN2CCC(Nc3nc4ccccc4n3Cc3ccc(F)cc3)CC2)[nH]1 [Compound 87]	0.08	0.63	–
Fc1ccc(Cn2c(NC3CCN(CCNc4cnccn4)CC3)nc3ccccc32)cc1 [Compound 33]	0.16	2.5	–
